Measurements taken from PMC11602115 (Journal of Medicinal Chemistry, 2017).
Where two headings read alike, the source gives them in different places. Blank lines part the entries; values can stand above or below the compound they belong to.

Columns and labels:
human platelet = experiment: Inhibition of ADP-induced human platelet aggregation; assay type: cell-based; settings: aggregation induced by 2.5 μM ADP, mean of at least two determinations
Protocol: Such aggregated and activated platelets produce vasoactive substances such as thromboxane and serotonin that may cause harmful vasoconstriction and vascular remodeling.[13] […] This secondary assay was carried out as previously described,[14] with aggregation induced by 2.5 μM ADP in the presence or absence of IP receptor agonists.

rat IP = rat IP (Rattus norvegicus, UniProt P43253); experiment: HTRF cAMP assay, recombinant rat IP receptor; assay type: cell-based; design: expressed in transfected cells; settings: for EC50: HTRF (cAMP) rat IP receptor assay, mean of at least three determinations; for Emax: read-out: rIP % IA
Protocol: (§1) The new compounds were tested for functional agonist activity in a standard (Cisbio) cAMP assay using recombinant IP or DP1 receptors stably expressed in CHO-K1 cells. Clonal cell lines were derived following standard protocols, but receptor expression levels were kept to a minimum to preclude receptor reserve effects.
(§2) For development of cAMP accumulation assays, recombinant IP or DP1 receptors were stably expressed in CHO-K1 cells and clonal cell lines derived following standard protocols. Receptor expression levels were minimized to preclude receptor reserve effects. HTRF cAMP assays were performed according to the manufacturer’s instructions (Cisbio, cAMP Dynamic 2 assay kit; no. 62AM4PEJ). IP receptor-expressing cells were harvested, resuspended in assay buffer (PBS containing 1 mM IBMX and 0.2% BSA) at a density of 200 000 cells per mL, and dispensed into 384-well assay plates (PerkinElmer Proxiplate no. 6008280) at 5 μL per well. Test compounds were solubilized and serially diluted in DMSO using 5-fold dilutions to generate a 10-point dose–response curve with a top concentration of 10 μM. The samples were then further diluted in PBS to achieve a 2× stock. Diluted compounds were then transferred to a triplicate set of assay plates (5 μL per well). After a 1 h incubation at room temperature, 5 μL of cAMP-D2 reagent diluted in lysis buffer was added to each well followed by 5 μL of cryptate reagent. Plates were then incubated at room temperature for 1 h prior to reading. Time-resolved fluorescence measurements were collected on PerkinElmer Envision or BMG Pherastar microplate readers.

human DP1 receptor = biological target: T1, human DP1 receptor (Homo sapiens, UniProt Q13258); experiment: HTRF cAMP assay, recombinant human DP1 receptor in CHO-K1 cells; assay type: cell-based; settings: for Emax: CHO-K1, intrinsic activity relative to 1 μM PGD2, read-out: hDP1 % IA; for EC50: HTRF (cAMP) human DP1 receptor assay, mean of at least three determinations, read-out: EC50 hDP1
T1 construct: expressed in transfected cells
T1 sequence (Q13258 1-359): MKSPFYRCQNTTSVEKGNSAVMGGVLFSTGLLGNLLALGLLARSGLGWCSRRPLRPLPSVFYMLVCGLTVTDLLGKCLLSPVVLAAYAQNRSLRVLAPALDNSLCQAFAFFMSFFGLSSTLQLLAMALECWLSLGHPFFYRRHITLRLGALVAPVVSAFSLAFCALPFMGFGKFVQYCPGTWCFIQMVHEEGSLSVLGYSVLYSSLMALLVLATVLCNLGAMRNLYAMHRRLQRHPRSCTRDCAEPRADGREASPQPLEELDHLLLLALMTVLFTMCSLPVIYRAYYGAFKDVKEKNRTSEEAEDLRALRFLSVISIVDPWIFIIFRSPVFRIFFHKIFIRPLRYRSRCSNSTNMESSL
Protocol: as §1, §2

IP = IP (Homo sapiens, UniProt P43119); experiment: HTRF cAMP assay, recombinant human IP receptor stably expressed in CHO-K1 cells; assay type: cell-based; design: expressed in transfected cells
Protocol: as §1, §2

[1] = Stability in human microsome preparations; assay type: in vitro ADME; settings: incubation at 37 °C, human microsomes; read-out: human MS, T1/2
From the text: (§3) Table 1 Screening Data for Selected Analogues ^a | column: human and rat MS, T1/2 (min) ^g

Rat PK (iv and oral) = assay type: in vivo; settings: for AUC(0-inf) / bioavailability: Sprague-Dawley, plasma; for AUC(0-inf): after oral administration 10 mg/kg (5m 10.5); for bioavailability: po, 10 mg/kg; for Cmax / Tmax: po 10 mg/kg (5m 10.5); for T1/2: terminal half-life after iv 2 mg/kg (5m 2.1); for Clobs: total clearance, iv 2 mg/kg (5m 2.1)
[2] = Stability in rat microsome preparations; assay type: in vitro ADME; settings: incubation at 37 °C, rat microsomes; read-out: rat MS, T1/2
From the text: as §3

[3] = HTRF (cAMP) human IP receptor assay; mean of at least three determinations

rat IP, sequence (P43253 whole entry): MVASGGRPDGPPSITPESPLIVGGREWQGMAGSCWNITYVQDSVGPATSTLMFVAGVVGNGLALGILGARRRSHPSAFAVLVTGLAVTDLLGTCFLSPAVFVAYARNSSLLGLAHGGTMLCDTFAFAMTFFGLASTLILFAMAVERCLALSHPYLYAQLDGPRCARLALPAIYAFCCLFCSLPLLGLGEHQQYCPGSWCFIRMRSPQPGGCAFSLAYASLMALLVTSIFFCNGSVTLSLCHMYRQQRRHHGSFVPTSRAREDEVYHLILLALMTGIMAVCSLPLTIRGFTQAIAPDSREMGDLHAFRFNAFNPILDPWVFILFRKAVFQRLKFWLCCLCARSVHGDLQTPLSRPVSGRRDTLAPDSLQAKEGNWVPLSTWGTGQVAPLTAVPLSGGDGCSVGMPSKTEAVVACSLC
IP, sequence (P43119 whole entry): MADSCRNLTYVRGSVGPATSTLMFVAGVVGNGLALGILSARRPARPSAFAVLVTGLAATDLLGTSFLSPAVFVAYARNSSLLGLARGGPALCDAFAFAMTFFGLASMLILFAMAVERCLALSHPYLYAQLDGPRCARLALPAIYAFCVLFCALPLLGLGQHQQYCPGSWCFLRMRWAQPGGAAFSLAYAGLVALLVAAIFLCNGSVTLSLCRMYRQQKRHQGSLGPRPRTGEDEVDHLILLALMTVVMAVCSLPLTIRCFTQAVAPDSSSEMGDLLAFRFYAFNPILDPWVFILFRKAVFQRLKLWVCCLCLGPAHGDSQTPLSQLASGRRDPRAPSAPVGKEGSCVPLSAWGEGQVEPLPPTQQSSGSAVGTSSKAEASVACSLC

IC50 (human platelet): 0.022 µM
EC50 (rat IP): 0.165 µM
Emax (rat IP): 91%
half-life [1]: > 1 h
AUC(0-inf) (Rat PK (iv and oral)): 3.4 µg·h/mL
bioavailability (Rat PK (iv and oral)): 100%
Cmax (Rat PK (iv and oral)): 0.95 µg/mL
Tmax (Rat PK (iv and oral)): 0.3 h
T1/2 (Rat PK (iv and oral)): 0.3 h
Clobs (Rat PK (iv and oral)): 3.4 L h^–1 kg^–1
Emax (human DP1 receptor): 74%
EC50 (human DP1 receptor): 0.24 µM
Emax (IP; CHO-K1; read-out: hIP % IA): 83%
EC50 (IP; [3]): 0.0033 µM
half-life [2]: > 1 h
SMILES: COc1ccc(N(C(=O)OC[C@H]2CC[C@H](COCC(=O)O)CC2)c2ccccc2)cc1 [5e, 2-(((1r,4r)-4-(((4-Methoxyphenyl)(phenyl)carbamoyloxy)methyl)cyclohexyl)methoxy)acetic Acid]

IC50 (human platelet): 0.093 µM
EC50 (rat IP): 0.561 µM
Emax (rat IP): 88%
Emax (human DP1 receptor): 61%
EC50 (human DP1 receptor): 3.87 µM
Emax (IP; CHO-K1; read-out: hIP % IA): 79%
EC50 (IP; [3]): 0.062 µM
SMILES: O=C(O)COC[C@H]1CC[C@@H](COC(=O)N(c2ccccc2)c2cccc(F)c2)CC1 [5h, 2-(((1s,4s)-4-(((3-Fluorophenyl)(phenyl)carbamoyloxy)methyl)cyclohexyl)methoxy)acetic Acid]

EC50 (rat IP): 0.272 µM
Emax (rat IP): 88%
half-life [1]: > 1 h
Emax (human DP1 receptor): 30%
EC50 (human DP1 receptor): 5.07 µM
Emax (IP; CHO-K1; read-out: hIP % IA): 80%
half-life [2]: > 1 h
SMILES: O=C(O)COC[C@H]1CC[C@H](COC(=O)N(c2ccccc2)c2cccc(Cl)c2)CC1 [5i, 2-(((1r,4r)-4-(((3-Chlorophenyl)(phenyl)carbamoyloxy)methyl)cyclohexyl)methoxy)acetic Acid]

IC50 (human platelet): 0.023 µM
EC50 (rat IP): 0.47 µM
Emax (rat IP): 94%
half-life [1]: > 1 h
AUC(0-inf) (Rat PK (iv and oral)): 1.9 µg·h/mL
bioavailability (Rat PK (iv and oral)): 86%
Cmax (Rat PK (iv and oral)): 0.9 µg/mL
Tmax (Rat PK (iv and oral)): 0.3 h
T1/2 (Rat PK (iv and oral)): 3.3 h
Clobs (Rat PK (iv and oral)): 5.1 L h^–1 kg^–1
Emax (human DP1 receptor): 68%
EC50 (human DP1 receptor): 1.72 µM
Emax (IP; CHO-K1; read-out: hIP % IA): 92%
EC50 (IP; [3]): 0.012 µM
half-life [2]: 0.883 h
SMILES: COc1cccc(N(C(=O)OC[C@H]2CC[C@H](COCC(=O)O)CC2)c2ccccc2)c1 [5j, 2-(((1r,4r)-4-(((3-Methoxyphenyl)(phenyl)carbamoyloxy)methyl)cyclohexyl)methoxy)acetic Acid]

IC50 (human platelet): 0.012 µM
EC50 (rat IP): 0.535 µM
Emax (rat IP): 91%
half-life [1]: > 1 h
AUC(0-inf) (Rat PK (iv and oral)): 7.9 µg·h/mL
bioavailability (Rat PK (iv and oral)): 100%
Cmax (Rat PK (iv and oral)): 1.2 µg/mL
Tmax (Rat PK (iv and oral)): 0.3 h
T1/2 (Rat PK (iv and oral)): 3.9 h
Clobs (Rat PK (iv and oral)): 1.8 L h^–1 kg^–1
Emax (human DP1 receptor): 55%
EC50 (human DP1 receptor): 0.62 µM
Emax (IP; CHO-K1; read-out: hIP % IA): 89%
EC50 (IP; [3]): 0.0066 µM
half-life [2]: > 1 h
SMILES: O=C(O)COC[C@H]1CC[C@H](COC(=O)N(c2ccccc2)c2ccc(F)cc2)CC1 [5l, 2-(((1r,4r)-4-(((4-Fluorophenyl)(phenyl)carbamoyloxy)methyl)cyclohexyl)methoxy)acetic Acid]

IC50 (human platelet): 0.043 µM
EC50 (rat IP): 1.57 µM
Emax (rat IP): 60%
Emax (human DP1 receptor): 65%
EC50 (human DP1 receptor): 1.03 µM
Emax (IP; CHO-K1; read-out: hIP % IA): 70%
EC50 (IP; [3]): 0.0052 µM
SMILES: COc1ccc(N(C(=O)OC[C@H]2CC[C@H](COCC(=O)O)CC2)c2cccc(F)c2)cc1 [5p, 2-(((1r,4r)-4-(((3-Fluorophenyl)(4-methoxyphenyl)carbamoyloxy)methyl)cyclohexyl)methoxy)acetic Acid]

IC50 (human platelet): 0.03 µM
EC50 (rat IP): 1.63 µM
Emax (rat IP): 54%
half-life [1]: > 1 h
Emax (human DP1 receptor): 57%
EC50 (human DP1 receptor): 0.808 µM
Emax (IP; CHO-K1; read-out: hIP % IA): 76%
EC50 (IP; [3]): 0.0078 µM
half-life [2]: > 1 h
SMILES: O=C(O)COC[C@H]1CC[C@H](COC(=O)N(c2ccc(F)cc2)c2cccc(F)c2)CC1 [5s, 2-(((1r,4r)-4-(((4-Fluorophenyl)(3-fluorophenyl)carbamoyloxy)methyl)cyclohexyl)methoxy)acetic Acid]

EC50 (rat IP): 2.72 µM
Emax (rat IP): 56%
half-life [1]: > 1 h
EC50 (human DP1 receptor): > 10 µM
Emax (IP; CHO-K1; read-out: hIP % IA): 75%
EC50 (IP; [3]): 0.023 µM
half-life [2]: > 1 h
SMILES: O=C(O)COC[C@H]1CC[C@H](COC(=O)N(c2cccc(F)c2)c2ccc(Cl)c(F)c2)CC1 [5t, 2-(((1r,4r)-4-(((4-Chloro-3-fluorophenyl)(3-fluorophenyl)carbamoyloxy)methyl)cyclohexyl)methoxy)acetic Acid]

Emax (IP; CHO-K1; read-out: hIP % IA): 93%
EC50 (IP; [3]): 0.025 µM
SMILES: O=C(O)COC[C@H]1CC[C@H](COC(=O)N(c2ccc(O)cc2)c2ccc(Cl)cc2)CC1 [M2]

Emax (IP; CHO-K1; read-out: hIP % IA): 78%
EC50 (IP; [3]): 1.05 µM
SMILES: O=C(COC[C@H]1CC[C@H](COC(=O)N(c2ccc(O)cc2)c2ccc(Cl)cc2)CC1)NCCS(=O)(=O)O [M3]

Second part, the compound before the results:

SMILES: O=C(O)COC[C@H]1CC[C@@H](COC(=O)N(c2ccccc2)c2ccccc2)CC1 [5b, 2-(((1s,4s)-4-((Diphenylcarbamoyloxy)methyl)cyclohexyl)methoxy)acetic Acid]
IC50 (human platelet): 0.054 µM
EC50 (rat IP): 0.472 µM
Emax (rat IP): 94%
Emax (human DP1 receptor): 68%
EC50 (human DP1 receptor): 1.71 µM
Emax (IP; CHO-K1; read-out: hIP % IA): 81%
EC50 (IP; [3]): 0.054 µM

SMILES: O=C(O)COC[C@H]1CC[C@@H](COC(=O)N(c2ccccc2)c2ccc(Cl)cc2)CC1 [5d, 2-(((1s,4s)-4-(((4-Chlorophenyl)(phenyl)carbamoyloxy)methyl)cyclohexyl)methoxy)acetic Acid]
EC50 (rat IP): 0.56 µM
Emax (rat IP): 88%
Emax (human DP1 receptor): 60%
EC50 (human DP1 receptor): 0.98 µM
Emax (IP; CHO-K1, read-out: hIP % IA): 80%

SMILES: COc1ccc(N(C(=O)OC[C@H]2CC[C@@H](COCC(=O)O)CC2)c2ccccc2)cc1 [5f, 2-(((1s,4s)-4-(((4-Methoxyphenyl)(phenyl)carbamoyloxy)methyl)cyclohexyl)methoxy)acetic Acid]
EC50 (rat IP): > 10 µM
Emax (IP; CHO-K1; read-out: hIP % IA): 16%
EC50 (IP; [3]): 1.63 µM

SMILES: Cc1ccc(N(C(=O)OC[C@H]2CC[C@H](COCC(=O)O)CC2)c2ccccc2)cc1 [5k, 2-(((1r,4r)-4-((Phenyl(p-tolyl)carbamoyloxy)methyl)cyclohexyl)methoxy)acetic Acid]
IC50 (human platelet): 0.039 µM
EC50 (rat IP): 0.174 µM
Emax (rat IP): 99%
Emax (human DP1 receptor): 53%
EC50 (human DP1 receptor): 0.32 µM
Emax (IP; CHO-K1; read-out: hIP % IA): 81%
EC50 (IP; [3]): 0.0039 µM

SMILES: O=C(O)COC[C@H]1CC[C@H](COC(=O)N(c2ccccc2)c2ccc(F)c(Cl)c2)CC1 [5n, 2-(((1r,4r)-4-(((3-Chloro-4-fluorophenyl)(phenyl)carbamoyloxy)methyl)cyclohexyl)methoxy)acetic Acid]
IC50 (human platelet): 0.142 µM
EC50 (rat IP): 1.33 µM
Emax (rat IP): 102%
half-life [1]: > 1 h
EC50 (human DP1 receptor): > 10 µM
Emax (IP; CHO-K1; read-out: hIP % IA): 79%
EC50 (IP; [3]): 0.038 µM
half-life [2]: > 1 h

SMILES: O=C(O)COC[C@H]1CC[C@H](COC(=O)N(c2ccc(Cl)cc2)c2cccc(F)c2)CC1 [5q, 2-(((1r,4r)-4-(((4-Chlorophenyl)(3-fluorophenyl)carbamoyloxy)methyl)cyclohexyl)methoxy)acetic Acid]
EC50 (rat IP): 3.19 µM
Emax (rat IP): 44%
half-life [1]: > 1 h
Emax (human DP1 receptor): 35%
EC50 (human DP1 receptor): 1.14 µM
Emax (IP; CHO-K1; read-out: hIP % IA): 70%
EC50 (IP; [3]): 0.0185 µM
half-life [2]: > 1 h

SMILES: O=C(O)COC[C@H]1CC[C@H](COC(=O)N(c2ccc(F)cc2)c2ccc(F)cc2)CC1 [5r, 2-(((1r,4r)-4-((Bis(4-fluorophenyl)carbamoyloxy)methyl)cyclohexyl)methoxy)acetic Acid]
EC50 (rat IP): > 10 µM
Emax (human DP1 receptor): 45%
EC50 (human DP1 receptor): 0.86 µM
Emax (IP; CHO-K1; read-out: hIP % IA): 65%
EC50 (IP; [3]): 0.041 µM

SMILES: CC(C)N(CCCCOCC(=O)NS(C)(=O)=O)c1cnc(-c2ccccc2)c(-c2ccccc2)n1 [compound 1, selexipag, reference compound]
IC50 (human platelet): 0.062 µM
Emax (rat IP): 100%
half-life [1]: > 1 h
Emax (human DP1 receptor): 48%
Emax (IP; CHO-K1; read-out: hIP % IA): 98%
half-life [2]: > 1 h
